Test results published in patent US20230005594A1, “CLINICAL DECISION SUPPORT FOR PERSONALIZED ADAPTIVE PROSTATE CANCER THERAPY” (H. LEE MOFFITT CANCER CENTER AND RESEARCH INSTITUTE, INC., priority 2019, published 2023).
Where “and” joins values, the source holds several entries; their conditions need not be identical. Identical values can stand only once. Like-named read-outs stand apart in the source and are kept apart here.

Assays:
[1] = system: metastatic castration resistant prostate cancer (mCRPC); conditions: cited from earlier work
castration-resistant PCa = assay: Clinical trial of second-line intermittent AA therapy (NCT02415621); assay type: in vivo, human
From the text: Prior theoretical, pre-clinical, and clinical studies have questioned the utilization of MTD treatment in non-curative settings. That is, continuous MTD treatment fails to consider the evolutionary dynamics of treatment presponse, where competition, adaptation and selection between treatment sensitive and resistant cells contribute to therapy failure. In fact, this strategy, by maximally selecting for resistant phenotypes and eliminating other competing populations, may actually accelerate the emergence of resistant populations—a well-studied evolutionary phenomenon termed “competitive release.” In part to address this issue, prior trials have used an intermittent on- and off-ADT (IADT) to reduce toxicity and delay time to progression (TTP). […]
Survival benefits have not been confirmed clinically, which can be due to the conservative trial designs of long on-treatment cycles (7-8 months) and short off-cycles. […] PSA values can be monitored every four weeks as done in the clinic. […] For Patient 36, relative PSA values of 50% or 90% of pre-treatment PSA levels as triggers to pause IADT and pre-treatment PSA levels to resume IADT yield longer TTP than the static triggers (PSA monitored every 4 weeks, IADT is paused if PSA<4 ng/mL for consecutive 36 weeks, and IADT resumes if PSA>10 ng/mL). […]

[2] = system: metastatic, hormone-sensitive PCa; conditions: cited from earlier work
PCa = conditions: cited from earlier work
PCaSC = conditions: cited from earlier work
hormone-refractory PCa = conditions: docetaxel added at end of ADT; cited from earlier work
advanced prostate cancer = conditions: patients with advanced prostate cancer; cited from earlier work
[3] = abiraterone plus gonadotropin-releasing hormone analog, AA-302 trial
[4] = docetaxel plus ADT, added at beginning of hormone therapy

Question: With `CC(=O)O[C@H]1CC[C@@]2(C)C(=CC[C@@H]3[C@@H]2CC[C@]2(C)C(c4cccnc4)=CC[C@@H]32)C1` [abiraterone acetate] as the compound, how does the PSA response rate [1, 3] read?
Answer: 62%

Question: And the “median time to progression” value [1, 3]?
Answer: 11.1 months

Question: And the “overall survival compared to prednisone or placebo” value ([1]; second-line hormone therapy)?
Answer: prolong overall survival

Question: What about the “median TTP” value (castration-resistant PCa; continuous MTD AA) of the same compound?
Answer: 13 months

Question: What about the “median TTP” value (castration-resistant PCa; intermittent AA therapy, median not reached) of the same compound?
Answer: at least 33 months

Question: With `CC(=O)O[C@@]12CO[C@@H]1C[C@H](O)[C@@]1(C)C(=O)[C@H](O)C3=C(C)[C@@H](OC(=O)[C@H](O)[C@@H](NC(=O)OC(C)(C)C)c4ccccc4)C[C@@](O)([C@@H](OC(=O)c4ccccc4)[C@H]21)C3(C)C` [docetaxel] as the compound, how does the survival benefit ([2]; CHAARTED trial, LVD patients) read?
Answer: no statistically significant survival benefit

Question: What about the overall survival benefit ([2]; CHAARTED trial, patients with HVD) of the same compound?
Answer: statistically significant overall survival benefit

Question: And the “increase in overall survival” value ([2]; GETUG-AFU15, high volume disease (HVD), DOC with continuous ADT, non-significant)?
Answer: 20%

Question: And the survival benefit ([2]; GETUG-AFU15, low volume disease (LVD))?
Answer: no survival benefit

Question: And the overall survival benefit ([2]; STAMPEDE trial, median follow-up of 43 months)?
Answer: more than 12 months

Question: What about the “increase in overall survival time compared to ADT alone” value (PCa; docetaxel added at beginning of long-term hormone therapy) of the same compound?
Answer: 10-13 months

Question: What about the TTP (PCa; [4]) of the same compound?
Answer: 20.2 months

Question: What about the overall survival time (PCa; [4]) of the same compound?
Answer: 81 months and 57.6 months

Question: What about the “PCaSC docetaxel sensitivity as share of PCaC sensitivity” value (PCaSC) of the same compound?
Answer: about 25%

Question: What about the increase in survival (hormone-refractory PCa) of the same compound?
Answer: 2.4 months

Question: And the survival (hormone-refractory PCa)?
Answer: 18.9 months

Question: What about the Total tumor regression rate (δS+δC), median (advanced prostate cancer) of the same compound?
Answer: 0.015 day⁻¹

Question: What about the Total tumor regression rate (δS+δC), range (advanced prostate cancer) of the same compound?
Answer: 0.006 to 0.032 day⁻¹
